This assay addresses T1, Tyrosine-protein phosphatase non-receptor type 2 (Homo sapiens, UniProt P17706).
T1 sequence (P17706 whole entry): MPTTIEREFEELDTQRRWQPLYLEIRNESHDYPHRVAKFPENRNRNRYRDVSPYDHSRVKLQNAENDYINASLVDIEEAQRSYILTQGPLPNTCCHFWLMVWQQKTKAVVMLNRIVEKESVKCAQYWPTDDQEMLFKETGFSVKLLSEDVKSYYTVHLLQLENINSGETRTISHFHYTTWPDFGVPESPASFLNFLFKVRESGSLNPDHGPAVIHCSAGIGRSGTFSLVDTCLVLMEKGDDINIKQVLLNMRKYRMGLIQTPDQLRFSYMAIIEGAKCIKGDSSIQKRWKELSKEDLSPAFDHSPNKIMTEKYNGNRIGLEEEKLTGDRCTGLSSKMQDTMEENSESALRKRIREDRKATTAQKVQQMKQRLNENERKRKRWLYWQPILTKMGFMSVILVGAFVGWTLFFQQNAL
In words: PTP1B and TCPTP Inhibition Assay.

The term Ki denotes a measure of affinity in units of concentration, obtained from inhibition or displacement. Low values mean tighter binding, high ones weaker binding.

SMILES strings stand for the structures.

Experimental: For each concentration of test compound or DMSO control, the initial rates were used to fit the rectangular hyperbola of Michaelis-Menten by nonlinear regression analysis. The ratio of the apparent Km/Vmax vs inhibitor concentration was plotted, and the Ki was calculated by linear regression to be the negative X-intercept.

Molecule `CCCCCNC(=O)[C@H](Cc1ccc(N(C(=O)C(=O)O)c2ccccc2C(=O)O)c(/C=C/C(N)=O)c1)NS(C)(=O)=O` [2-{[2-(2-Carbamoylvinyl)-4-(2-(S)-methanesulfonylamino 2-pentylcarbamoylethyl)phenyl]oxalylamino}-benzoic Acid] displayed a Ki of 160 nM.

For the origin of these results see BindingDB's records for doi:10.1021/jm0205696 (Abbott Laboratories, 2003).
